Drawing on a melting point compilation (Tetko et al.; mined from patent text by program, amines drawn as free bases though some values may be those of a salt), this text covers melting point for 90 compounds.

Residues, ends and D or L forms follow the SMILES beside them. *: point of attachment. Cbz = O=C(OCc1ccccc1)* Where only a bound is given, the exact number is not on record here.

The melting point is the temperature, or range, at which the solid turns liquid. In turn, `CCOCc1nc2c(N)nc3cccnc3c2n1CCCCN(OC)C(C)=O` came in with a melting point of 180 to 181 °C. To `N#CC(Cc1ccccc1Cl)C(=O)O` (stereo not given) belongs 132 to 134 °C; to `Cc1c(C)n(CC=Cc2ccccc2)c2c(OCc3ccccc3)nncc12`, 132 to 134 °C.

The compound `CN1CCC(c2c[nH]c3ccc(Sc4ccc(Cl)cc4)cc23)CC1` came in with a melting point of 148 to 150 °C.

`CCCn1cc(Cc2ccc(C(=O)OC)cc2OC)c2cc(CCC(=O)O)ccc21` returned a melting point of 109 to 111 °C. As to `O=C(O)c1cccc(Nc2nc(Oc3ccccc3)nc(Oc3cccc(Cl)c3)n2)c1`, the melting point was in the range of 227 to 230 °C. On to `CS(=O)(=O)c1ccc(-n2nccc2-c2ccc(Br)cc2)cc1F`, for which the melting point was 155 to 156 °C. To `COC(=O)c1cc(OCc2cn(-c3ccc(C(F)(F)F)cn3)nc2C(C)C)nn1C` belongs 114 to 115 °C; to `COc1ccc(-c2ccccc2-c2ccc(S(C)(=O)=O)cc2)cc1F`, 136 to 137 °C.

Compound `CS(=O)(=O)Nc1ccc(CCNC(=O)c2cc3cc(O)ccc3cc2O)cc1` displayed a melting point of 176 to 178 °C. The compound `COc1cc(OC)c2sc(-c3ccc([N+](=O)[O-])cc3)nc2c1` had a melting point of 238 to 239 °C. To `Clc1cccc(-c2cc(OCC3CO3)no2)c1` (stereo not given) belongs 86 to 87 °C; to `CCCCCS(=O)(=O)NC(=O)/C=C/c1ccc(OCCCOCC2CC2)cc1Oc1ncc(C(F)(F)F)cc1Cl`, 124 to 125 °C; to `COC(=O)C1C(OC)=CCc2ccc(OC)cc21` (stereo not given), 90 to 91 °C. For the compound `Cc1ccc2[nH]c3c(c2c1)CC(C)CC3` (stereo not given), the melting point came out at 112 °C. In the case of `CC(C)(C)c1cc(CCc2ccccc2NC(=O)NCC2CCCCC2)cc(C(C)(C)C)c1O`, the melting point lay in the range of 208 to 210 °C. Under `COC(=O)c1cc(C)nc(Nc2ccc(C(C)C)cc2Br)n1` stands 75 to 76 °C; under `OC1CSC(Oc2ccc(-c3ccc(OC(F)(F)F)cc3)nc2)C(O)C1O` (stereo not given), 184 to 186 °C; under `O=C(Oc1ccc(Br)cc1)c1ccccc1`, 98 to 100 °C.

On to `CCc1c(-c2ccncc2)[nH]c2ccc(C3=NNC(=O)CC3)cc12`, for which the melting point was above 300 °C. Compound `Nc1cc(O)ccc1Oc1ccccc1` showed a melting point of 156 to 157 °C.

In turn, `CC(O)c1ccc(Cc2ccccc2CO)cc1` (stereo not given) had a melting point of 96 to 97 °C. To `CC(=O)N(C(C)=O)c1cnn(-c2cccc(C(F)(F)F)c2)c(=O)c1-c1cccc(C(F)(F)F)c1` belongs 174 °C. Under `c1ccc2c(c1)CC1(C3=NCCN3)CC21` (single isomer, unassigned; (+)) stands 245 to 247 °C; under `N#Cc1ccc(NC(=N)Nc2ccc(C#N)cc2)cc1`, 195 to 200 °C; under `CCCCCS(=O)(=O)NC(=O)CCc1ccc(OCCC2(C)OCCO2)cc1Oc1ncc(C(F)(F)F)cc1Cl`, 96.5 to 97.5 °C.

Turning to `CNc1nc(NS(=O)(=O)c2ccc(N)cc2)cc(N2CCC2)n1`, the melting point was 295 to 296 °C.

For the compound `CCCCc1nc2c(N)nc3ccc(OCc4ccccc4)cc3c2n1CCCCN`, the melting point is 161 to 164 °C. To `C=COCCOc1ccc(C2(c3ccc(OCCOC=C)cc3)CCC(c3ccc(OCCOC=C)cc3)(c3ccc(OCCOC=C)cc3)CC2)cc1` belongs 138 to 139 °C. Under `Cc1nn(C)c2nc(N)[nH]c(=O)c2c1=O` stands above 300 °C. For the compound `C[C@H](N)c1nc2c(C(F)(F)F)cccc2c(O)c1C(=O)Nc1nccs1`, the melting point amounted to 270 °C. Take `COC(=O)C1=C(C)Nc2ccccc2NC1c1ccccc1[N+](=O)[O-]` (stereo not given): the melting point lay in the range of 190 to 192 °C. To `NC1=Nc2ccc(OC(F)(F)F)cc2CS1` belongs 115 to 118 °C; to `COC(=O)c1oc(Cl)nc1C`, 69 to 71 °C.

`Cc1cc(OCc2sc(-c3ccc(C(F)(F)F)cc3)nc2C)ccc1OCC(=O)O` gave a melting point of 174 to 176 °C. On to `CN(C1CCN(Cc2csnn2)CC1)S(=O)(=O)c1ccc(Nc2nccc(Nc3ccc(F)c(F)c3)n2)cc1`, for which the melting point was 172 to 173 °C.

In the case of `CC(C)(C)c1ccc(Nc2ncc(-c3ccc4ncncc4c3)c3ccccc23)cc1`, the melting point lay in the range of 213 to 214 °C. The compound `Brc1ccc(Nc2nnc(Cc3ccncc3)c3ccccc23)cc1` gave a melting point of 201 to 202 °C. `O=C(CCCl)n1ccc2ccccc21`: the melting point was 67 °C. On to `NCC(=O)N[C@H]1CC[C@H](O)CC1`, for which the melting point lay in the range of 110 to 114 °C.

The compound `Cc1cc(C)cc(COC(=O)C(Cc2c[nH]c3ccccc23)NS(C)(=O)=O)c1` (stereo not given) had a melting point of 96 to 97 °C. Take `CCOC(=O)C1CCN(c2cc(-n3c(=O)cc(C(F)(F)F)[nH]c3=O)c(F)cc2C#N)CC1`: the melting point was 124 °C. The compound `COc1ccccc1C(=O)OC1=C(c2nnc(-c3ccccc3OC)o2)N(C)S(=O)(=O)c2ccccc21` came in with a melting point of 119 to 120 °C. To `CN(C)c1ccc(C2CCCN2S(=O)(=O)c2ccc(Cl)cc2)cc1F` (racemic) belongs 99 °C. Under `O=C1C2CCCCC2C(=O)N1c1ccc(Br)cc1F` (stereo not given) stands 90 to 92 °C; under `CN(C)c1cccc(-n2cc(C(=O)NC(=N)N)c3cccnc32)c1`, 269 to 271 °C; under `COc1ccc(O[C@@H]2CCNC[C@H]2O)c(Br)c1` (relative stereo), 132 to 135 °C.

`O=C(Nc1cccc2ccccc12)OCCCC(=O)c1ccccc1` registered a melting point of 95 to 97 °C.

In turn, `CC(C)Oc1c(C(N)=O)oc2ccc(Cl)cc12` returned a melting point of 154 to 155 °C. Under `Cn1cc2c(c(C#N)c1=O)Nc1ccccc1S2` stands 292 to 295 °C; under `Cc1ccc(C#CC2CCC3C4CCC5CC(O)CCC5(C)C4CCC23C)cc1` (stereo not given), 178 to 180 °C; under `Cc1cccc(-c2nc3cccnn3c2-c2ccnc(NC(=O)NC(C)C)c2)c1`, 193 to 195 °C. To `Cc1cc(C#Cc2ccc(F)cc2)nc(Oc2cc(C(F)(F)F)nn2C)c1` belongs 86 to 87 °C; to `C=CCOc1cccc(C(C)=O)c1O`, 51 to 52 °C. `CCn1cc(C(=O)Cl)c(=O)c2ccc(Cl)nc21` returned a melting point of 186 to 188 °C. In turn, `COc1ccnc(C(=O)N[C@H]2COC(=O)[C@H](Cc3ccccc3)[C@@H](O)[C@H](C)OC2=O)c1OCc1ccccc1` had a melting point of 110 to 114 °C. Under `CN1CCc2ccn(S(=O)(=O)c3ccccc3)c2C(c2ccccc2)C1` (stereo not given) stands 115 to 116 °C. To `C[C@H]1C(=O)OCCN1CC=CC(=O)Nc1cc2c(Nc3ccc(F)c(Cl)c3)ncnc2cc1OCC1CC1` belongs 182 °C; to `Cn1c(CN2C(=O)C3(COc4cc5c(cc43)OCO5)c3ccccc32)nc2ccccc21` (stereo not given), above 250 °C. Compound `Nc1cc(O)nc(SCc2cccc(F)c2F)n1` yielded a melting point of 218 to 221 °C. Under `Cc1ccc2c(c1)C(=O)c1ccccc1CO2` stands 100 to 103 °C. Under `S=C=NCc1cc(-c2ccccc2)no1` stands 66 °C; under `CC1(C)COP(=O)(Cc2ccc(N)cc2)OC1`, 152 to 153 °C; under `Cc1ccc(S(=O)(=O)OC[C@@H]2CCCN(C)C2)cc1`, 74.5 to 81 °C.

For the compound `CCOc1ccccc1-c1ncc(C(=O)O)c(=O)[nH]1`, the melting point was 168 to 184 °C. To `CCC(N)=C(C(C)=O)C(=O)N(CCN(C)C)c1cccc(F)c1` belongs 96 to 97 °C; to `CCOC(=O)c1cn(-c2ccccn2)cn1`, 118 to 119 °C.

For `CCc1cc(Br)cc(CC)c1N=C(c1ccccc1)c1ccccc1`, the melting point was found to be 112 °C.

Turning to `CC(Cl)(Cl)C(NC(=O)c1cccc(Cl)c1)NC(=N[N+](=O)[O-])Nc1cccnc1` (stereo not given), the melting point was 160 to 161 °C. To `c1nc(CSCCc2ccc3c(c2)OCO3)c[nH]1` belongs 81 to 83 °C; to `O=C(c1ccc2scnc(=O)c2c1)N1CCCC1`, 232 to 234 °C; to `O=C(O)CN1C(=O)N(Cc2cccc([N+](=O)[O-])c2)C(=O)C1O` (stereo not given), 153 to 155 °C.

As for `CC1CN(C(=O)Cn2c(=O)n(C)c3nc(-c4ccccc4)ncc32)CC(C)O1` (stereo not given), the melting point is 160 to 161 °C. For `Cc1nc2ncnn2c(O)c1F`, the melting point was 273 °C. For `O=C(O)C(=O)Nc1c(-c2ccccc2)c(=O)[nH]c2cc(Cl)ccc12`, the melting point was 240 °C. Under `C/C(=N\OCCOc1ccc(C(=O)O)c(Cl)c1)c1ccc(C(C)(C)C)cc1` stands 143 to 144 °C; under `Cc1ccccc1Oc1ccc2ccc(N)nc2n1`, 192 °C; under `CC1(C)Oc2ccc(C#N)cc2[C@@H](N2CCCCC2=O)[C@@H]1O` (relative stereo), 155 °C.

The compound `Fc1cc(OCc2ccccc2)ccc1-c1ncc(Br)cn1` returned a melting point of 124 °C. Compound `CC(=O)OC1Cc2ccccc2N(C#N)c2ccccc21` (stereo not given) yielded a melting point of 108 to 119 °C. `COC(=O)CCc1cn(Cc2ccc(O)cc2)nc1-c1ccccc1` returned a melting point of 87 to 88 °C. `NCc1cccc2nnsc12` yielded a melting point of 136 to 139 °C.

In turn, `COc1ccc(-c2coc3ccc(-c4nnc(SCc5cccc(OC)c5)o4)cc23)cc1` had a melting point of 118 to 119 °C. The compound `CC1(c2ccc3cc(Br)ccc3c2)OCCO1` had a melting point of 80 to 82 °C. As for `CCNC(=O)C(C)NC(=O)C(C)NC(=O)C1CCCN1C(=O)OCc1ccccc1` (stereo not drawn) (Cbz-Pro-Ala-Ala-NHEt; configuration not given here), the melting point fell in the range of 219 to 220 °C.

In the case of `Cc1cccc(-c2ncc(NC(=O)OCc3ccccc3)c(=O)n2CC(=O)NC(Cc2ccccc2)C(=O)C(F)(F)F)c1` (stereo not given), the melting point was 128 to 132 °C. Under `COc1cc(CSC(=S)N(C)C)nc(N)n1` stands 118 to 120 °C; under `CCC(C(=O)N(C)C)n1cc(Cl)c(-c2ccccc2C)n1` (stereo not given), 49.5 to 52 °C; under `COc1cc(C)c2c(c1OCC(=O)O)CC(C)(c1ccccc1)C2` (stereo not given), 151 to 152 °C. Under `COc1ccc(Br)cc1O` stands 62 to 64 °C.
